# Laboratory results reported in ChEMBL document CHEMBL4000165, “Chemosensitizing effect of Paris Saponin I on Camptothecin and 10-hydroxycamptothecin in lung cancer cells via p38 MAPK, ERK, and Akt signaling pathways” (Eur J Med Chem, 2017).
# pIC50: −log10 of the molar value. Calls of active or inactive are those of the source. No cut-off for these calls is given here.
# Key:
# [1] = organism: Homo sapiens; assay: Effect on Akt phosphorylation in human NCI-H446 cells at 0.6 uM in presence of HCPT by Western blot method; assay type: cell-based
# [2] = system: NCI-H520; assay: Cytotoxicity against human NCI-H520 cells assessed as reduction in cell viability after 48 hrs by MTT assay; assay type: functional, cell-based; settings: NCI-H520, 48 h
# [3] = molecular target: T1, MAP kinase p38 (Homo sapiens) (UniProt O15264+Q15759+Q16539+P53778); assay: Increase in p38 MAPK phosphorylation in human NCI-H460 cells at 0.6 uM in presence of CPT by Western blot method; assay type: cell-based
# [4] = system: NCI-H446; assay: Induction of apoptosis in human NCI-H446 cells assessed as activation of caspase-3/7 at 0.6 uM after 48 hrs in presence of HCPT by luciferase reporter gene assay; assay type: functional, cell-based
# [5] = system: NCI-H460; assay: Cytotoxicity against human NCI-H460 cells assessed as reduction in cell viability at 0.3 to 0.6 uM after 48 hrs in presence of HCPT by MTT assay; assay type: functional, cell-based
# [6] = system: NCI-H460; assay: Cytotoxicity against human NCI-H460 cells assessed as reduction in cell viability by measuring combinantion index at 0.3 to 0.6 uM after 48 hrs in presence of CPT by MTT assay; assay type: functional
# [7] = system: NCI-H446; assay: Induction of apoptosis in human NCI-H446 cells assessed as downregulation of Bcl-XL expression at 0.6 uM in presence of CPT by Western blot method; assay type: functional, cell-based
# [8] = system: NCI-H446; assay: Induction of apoptosis in human NCI-H446 cells at 0.6 uM in presence of HCPT by Annexin-V FITC/propidium iodide staining based flow cytometry; assay type: functional, cell-based; settings: TDE = time-dependent effect
# [9] = system: NCI-H446; assay: Effect on Akt protein expression in human NCI-H446 cells at 0.6 uM in presence of CPT by Western blot method; assay type: functional, cell-based
# [10] = system: NCI-H446; assay: Induction of apoptosis in human NCI-H446 cells assessed as downregulation of Bcl2 expression at 0.6 uM in presence of CPT by Western blot method; assay type: functional, cell-based
# [11] = system: NCI-H446; assay: Cytotoxicity against human NCI-H446 cells assessed as reduction in cell viability after 48 hrs by MTT assay; assay type: functional, cell-based; settings: NCI-H446, 48 h
# [12] = system: NCI-H1299; assay: Induction of apoptosis in human NCI-H1299 cells assessed as increase in total apoptotic cells at 0.3 uM after 48 hrs in presence of CPT by Annexin-V FITC/propidium iodide staining based flow cytometry; assay type: functional, cell-based
# [13] = molecular target: T2, Mitogen-activated protein kinase; ERK1/ERK2 (Homo sapiens) (UniProt P27361+P28482); assay: Effect on ERK1/2 phosphorylation in human NCI-H446 cells at 0.6 uM in presence of HCPT by Western blot method; assay type: cell-based
# T2 sequence (P27361 whole entry, looked up): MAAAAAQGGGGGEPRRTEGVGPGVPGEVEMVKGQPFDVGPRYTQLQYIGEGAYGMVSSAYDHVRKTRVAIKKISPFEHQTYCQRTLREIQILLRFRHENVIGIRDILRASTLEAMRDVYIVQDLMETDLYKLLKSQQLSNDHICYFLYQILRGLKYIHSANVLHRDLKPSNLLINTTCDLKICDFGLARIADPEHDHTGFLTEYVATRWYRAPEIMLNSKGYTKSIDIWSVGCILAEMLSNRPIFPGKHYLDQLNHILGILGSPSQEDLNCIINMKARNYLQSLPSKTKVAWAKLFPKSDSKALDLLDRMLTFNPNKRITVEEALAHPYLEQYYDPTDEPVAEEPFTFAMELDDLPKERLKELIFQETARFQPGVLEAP
# T2 sequence (P28482 whole entry, looked up): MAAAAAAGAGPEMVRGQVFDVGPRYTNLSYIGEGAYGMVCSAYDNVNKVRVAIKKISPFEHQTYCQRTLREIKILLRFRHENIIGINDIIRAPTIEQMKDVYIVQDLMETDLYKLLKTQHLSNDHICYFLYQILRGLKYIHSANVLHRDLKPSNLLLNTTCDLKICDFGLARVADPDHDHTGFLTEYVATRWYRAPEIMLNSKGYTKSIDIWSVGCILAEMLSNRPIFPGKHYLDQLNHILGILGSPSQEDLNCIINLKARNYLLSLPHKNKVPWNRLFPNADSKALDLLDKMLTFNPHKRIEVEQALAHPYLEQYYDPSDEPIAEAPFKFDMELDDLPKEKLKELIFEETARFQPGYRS
# [14] = molecular target: T2, Mitogen-activated protein kinase; ERK1/ERK2 (Homo sapiens); assay: Effect on ERK1/2 phosphorylation in human NCI-H446 cells at 0.6 uM in presence of CPT by Western blot method; assay type: cell-based
# [15] = system: NCI-H1299; assay: Effect on ERK1/2 protein expression in human NCI-H1299 cells at 0.3 uM in presence of HCPT by Western blot method; assay type: functional, cell-based
# [16] = system: NCI-H460; assay: Induction of apoptosis in human NCI-H460 cells assessed as activation of caspase-3/7 at 0.6 uM after 48 hrs in presence of CPT by luciferase reporter gene assay; assay type: functional, cell-based
# [17] = molecular target: c-Jun N-terminal kinase, JNK (Homo sapiens) (UniProt P45983+P53779+P45984); assay: Increase in JNK phosphorylation in human NCI-H460 cells at 0.6 uM in presence of HCPT by Western blot method; assay type: cell-based
# [18] = system: NCI-H460; assay: Induction of apoptosis in human NCI-H460 cells at 0.6 uM after 24 to 48 hrs by Annexin-V FITC/propidium iodide staining based flow cytometry; assay type: functional, cell-based
# [19] = system: NCI-H446; assay: Induction of apoptosis in human NCI-H446 cells assessed as increase in caspase-9 expression at 0.6 uM in presence of HCPT by Western blot method; assay type: functional, cell-based
# [20] = system: NCI-H460; assay: Cytotoxicity against human NCI-H460 cells assessed as reduction in cell viability after 48 hrs by MTT assay; assay type: functional, cell-based; settings: NCI-H460, 48 h
# [21] = system: NCI-H1299; assay: Induction of apoptosis in human NCI-H1299 cells at 0.3 uM up to 20 mins in presence of HCPT by acridine orange/ ethidium bromide staining based fluorescence microscopic method relative to control; assay type: functional
# [22] = system: NCI-H1299; assay: Decrease in p38 MAPK protein expression in human NCI-H1299 cells at 0.3 uM in presence of CPT by Western blot method; assay type: functional, cell-based
# [23] = molecular target: T2, Mitogen-activated protein kinase; ERK1/ERK2 (Homo sapiens); assay: Decrease in ERK1/2 phosphorylation in human NCI-H460 cells at 0.6 uM in presence of CPT by Western blot method; assay type: cell-based
# [24] = system: NCI-H446; assay: Induction of apoptosis in human NCI-H446 cells at 0.6 uM up to 20 mins in presence of HCPT by acridine orange/ ethidium bromide staining based fluorescence microscopic method relative to control; assay type: functional
# [25] = system: NCI-H1299; assay: Decrease in p38 MAPK protein expression in human NCI-H1299 cells at 0.3 uM in presence of HCPT by Western blot method; assay type: functional, cell-based
# [26] = system: NCI-H1299; assay: Effect on ERK1/2 protein expression in human NCI-H1299 cells at 0.3 uM in presence of CPT by Western blot method; assay type: functional, cell-based
# [27] = system: NCI-H1299; assay: Induction of apoptosis in human NCI-H1299 cells at 0.3 uM up to 20 mins in presence of CPT by acridine orange/ ethidium bromide staining based fluorescence microscopic method relative to control; assay type: functional
# [28] = system: NCI-H446; assay: Induction of apoptosis in human NCI-H446 cells at 0.6 uM in presence of CPT by Annexin-V FITC/propidium iodide staining based flow cytometry; assay type: functional, cell-based; settings: TDE = time-dependent effect
# [29] = system: NCI-H446; assay: Effect on Akt protein expression in human NCI-H446 cells at 0.6 uM in presence of HCPT by Western blot method; assay type: functional, cell-based
# [30] = system: NCI-H460; assay: Induction of apoptosis in human NCI-H460 cells assessed as increase in caspase-9 expression at 0.6 uM in presence of CPT by Western blot method; assay type: functional, cell-based
# [31] = molecular target: T1, MAP kinase p38 (Homo sapiens); assay: Effect on p38 MAPK phosphorylation in human NCI-H446 cells at 0.6 uM in presence of CPT by Western blot method; assay type: cell-based
# [32] = system: NCI-H446; assay: Effect on p38 MAPK protein expression in human NCI-H446 cells at 0.6 uM in presence of HCPT by Western blot method; assay type: functional, cell-based
# [33] = system: NCI-H460; assay: Induction of apoptosis in human NCI-H460 cells at 0.6 uM up to 20 mins in presence of CPT by acridine orange/ ethidium bromide staining based fluorescence microscopic method relative to control; assay type: functional
# [34] = system: NCI-H520; assay: Cytotoxicity against human NCI-H520 cells assessed as reduction in cell viability at 0.3 to 0.6 uM after 48 hrs in presence of CPT by MTT assay; assay type: functional, cell-based
# [35] = organism: Homo sapiens; assay: Decrease in Akt phosphorylation in human NCI-H460 cells at 0.6 uM in presence of CPT by Western blot method; assay type: cell-based
# [36] = system: NCI-H1299; assay: Induction of apoptosis in human NCI-H1299 cells assessed as increase in caspase-9 expression at 0.3 uM in presence of CPT by Western blot method; assay type: functional, cell-based
smiles,measurement,setting,value
C[C@@H]1CC[C@@]2(OC1)O[C@H]1C[C@H]3[C@@H]4CC=C5C[C@@H](O[C@@H]6O[C@H](CO)[C@@H](O[C@@H]7O[C@@H](CO)[C@H](O)[C@H]7O)[C@H](O)[C@H]6O[C@@H]6O[C@@H](C)[C@H](O)[C@@H](O)[C@H]6O)CC[C@]5(C)[C@H]4CC[C@]3(C)[C@H]1[C@@H]2C,Activity,[1],Active
same,pIC50,[2],> 6.00
same,Activity,[3],Active
same,Activity,[4],Active
same,Activity,[5],Active
same,CI,[6],<1
same,Activity,[7],Active
same,Activity,[8],Tde
same,Activity,[9],inactive
same,Activity,[10],Active
same,pIC50,[11],> 6.00
same,Activity,[12],Active
same,Activity,[13],Active
same,Activity,[14],Active
same,Activity,[15],inactive
same,Activity,[16],Active
same,Activity,[17],Active
same,Activity,[18],Active
same,Activity,[19],Active
same,pIC50,[20],> 6.00
same,fold change (FC),[21],2
same,Activity,[22],Active
same,Activity,[23],Active
same,fold change (FC),[24],2
same,Activity,[25],Active
same,Activity,[26],inactive
same,fold change (FC),[27],2
same,Activity,[28],Tde
same,Activity,[29],inactive
same,Activity,[30],Active
same,Activity,[31],inactive
same,Activity,[32],inactive
same,fold change (FC),[33],2
same,Activity,[34],Active
same,Activity,[35],Active
same,Activity,[36],Active
